Results: patent US20030108484A1, “Individualization of therapy with antineoplastic agents” (McGill University, priority 2001, published 2003)
pIC50: −log10 of the molar value. Read-outs that look alike come from different tables or passages of the source. Marks after values point to notes of the source that are not given here.

Experiments:
AAMU-Ab = assay: Competitive antigen ELISA, cross-reactivity of AAMU-Ab; type: binding, rabbit; details: for % Cross-Reaction AAMU-Ab: competitive antigen ELISA, 0 = absence of inhibition or inhibition no higher than 40% at highest concentration tested (5×10^−3 M)
Procedure: (§1) Buffers and water without additives are filtered through millipore filters and kept for 1 week. BSA, antibodies, Tween™ 20 and horse radish peroxidase conjugates are added to these buffers and water just prior to use. Urine samples are usually collected 4 hours after drinking a cup of coffee (instant or brewed with approximately 100 mg of caffeine per cup) and stored at −80° C. The urine samples are diluted 10 times with sodium phosphate buffer (620 mosm, pH 7.50) and are subsequently diluted with water to give concentrations of AAMU and 1X no higher than 3×10^−6 M in the ELISA. All the pipettings are done with an eight-channel pipette, except those of the antibody and sample solutions. Starting with the last well, 100 μL of a carbonate buffer (100 mM, pH 9.6) containing 2.5 μg mL^−1 antibodies are added to each well. After 90 min. at room temperature, the wells are washed three times with […] of TPB: isotonic sodium phosphate buffer (310 mosm, pH 7.50) containing 0.05% Tween™ 20.
(§2) After the initial wash, unoccupied sites are blocked by incubation for 90 min. at room temperature with 100 μL TBP containing 3% BSA. The wells are washed four times with 100 μL TPB. […] The microplate is gently shaken with an orbital shaker at room temperature for 3-4 hours. The wells are washed three times with 100 μL TPB containing 1% BSA and three times with water containing 0.05% Tween™ 20. To the washed plate is added 150 μL of a substrate buffer composed of citric acid (25 mM) and sodium phosphate dibasic buffer (50 mM, pH 5.0) containing 0.06% hydrogen peroxide and 0.04% o-phenylenediamine hydrochloride.
(§3) Buffers and water without additives were filtered through millipore filters and kept for 1 week. BSA, antibodies, Tween™ 20 and horse radish peroxidase conjugates were added to these buffers and water just prior to use. Urine samples were usually collected 4 hours after drinking a cup of coffee (instant or brewed with approximately 100 mg of caffeine per cup) and stored at −80° C. They were diluted 10 times with sodium phosphate buffer (620 mosm, pH 7.50) and were subsequently diluted with water to give concentrations of AAMU and 1X no higher than 3×10^−6 M in the ELISA. All the pipettings were done with an eight-channel pipette, except those of the antibody and sample solutions. Starting with the last well, 100 μL of a carbonate buffer (100 mM, pH 9.6) containing 2.5 μg mL^−1 antibodies was pipetted. After 90 min. at room temperature, the wells were washed three times with 100 μL of TPB: isotonic sodium phosphate buffer (310 mosm, pH 7.50) containing 0.05% TweenTm 20.
(§4) After the initial wash, unoccupied sites were blocked by incubation for 90 min. at room temperature with […] TBP containing 3% BSA. The wells were washed four times with 100 μL TPB. […] The microplate was gently shaken with an orbital shaker at room temperature for 3-4 hours. The wells were washed three times with 100 μL with TPB containing 1% BSA and three times with water containing 0.05% Tween™ 20. To the washed plate was added 150 μL of a substrate buffer composed of citric acid (25 mM) and sodium phosphate dibasic buffer (50 mM, pH 5.0) containing 0.06% hydrogen peroxide and 0.04% o-phenylenediamine hydrochloride. After 20 min. at room temperature with shaking, the reaction was stopped with 50 μL of 2.5 N HCl.
(§5) The cross reactivities of AAMU-Ab and 1X-Ab were tested using a wide variety of caffeine metabolites and structural analogs (Table 2 below).

1X-Ab = assay: Competitive antigen ELISA, cross-reactivity of 1X-Ab; type: binding, rabbit; details: for % Cross-Reaction 1X-Ab: competitive antigen ELISA, 0 = absence of inhibition or inhibition no higher than 40% at highest concentration tested (5×10^−3 M)
Procedure: as §1, §2, §3, §4, §5

[1] = p<0.05, cited from earlier work
breast cancer = details: first-line chemotherapy; cited from earlier work
[2] = cited from earlier work
[3] = individuals receiving 550 mg/m^2; cited from earlier work
[4] = test system: estrogen receptor-positive breast cancer and bone metastases; details: cited from earlier work

SMILES | % Cross-Reaction AAMU-Ab (AAMU-Ab) | % Cross-Reaction 1X-Ab (1X-Ab) [%] | other results
Cn1c(=O)c2c(ncn2C)n(C)c1=O [1,3,7-Trimethyl Xanthine (Caffeine), 1,3,7-Trimethyl Xanthine] | 0% | 0 | 
Cn1c(=O)c2[nH]cnc2n(C)c1=O [1,3-Dimethyl Xanthine (Theophylline), 1,3-Dimethyl Xanthine] | 0% | 0.2 | 
Cn1c(=O)[nH]c2ncn(C)c2c1=O [1,7-Dimethyl Xanthine (Paraxanthine), 1,7-Dimethyl Xanthine] | 0% | 0.5 | 
Cn1c(=O)[nH]c2[nH]c(=O)n(C)c2c1=O [1,7-Dimethyluric acid] | 0% | 0 | 
Cn1c(=O)[nH]c2nc[nH]c2c1=O [1-Methyl Xanthine (1X), 1-Methyl Xanthine] | 0% | 100 | pIC50 (1X-Ab; read-out: concentration required for 50% inhibition in the competitive antigen ELISA, 1X-Ab): 5.00
Cn1c(=O)[nH]c2[nH]c(=O)[nH]c2c1=O [1-Methyluric acid] | 0% | 11 | 
Cn1cnc2c1c(=O)[nH]c(=O)n2C [3,7-Dimethyl Xanthine (Theobromine), 3,7-Dimethyl Xanthine] | 0% | 0 | 
Cn1c(=O)[nH]c(=O)c2[nH]cnc21 [3-Methyl Xanthine] | 0% | 0 | 
CC(=O)Nc1c(N)n(C)c(=O)n(C)c1=O [5-Acetamino-6-amino-1,3-dimethyluracil] | 0% | 0 | 
CC(=O)Nc1c(N)n(C)c(=O)[nH]c1=O [5-Acetamino-6-amino-1-methyluracil] | 100% | 0 | pIC50 (AAMU-Ab; read-out: concentration required for 50% inhibition in the competitive antigen ELISA, AAMU-Ab): 5.82
CC(=O)Nc1c(N)[nH]c(=O)[nH]c1=O [5-Acetamino-6-amino-uracil] | 0.6% | 0 | 
Cn1cnc2[nH]c(=O)[nH]c(=O)c21 [7-Methyl Xanthine] | 0% | 0 | 
Cc1nc2[nH]c(=O)[nH]c(=O)c2[nH]1 [8-Methyl Xanthine] | 0% | 0 | 
COc1ccc2c(c1)[C@]13CCCC[C@@H]1[C@H](C2)N(C)CC3 [Dextromethorphan] |  |  | mean performance +/-SE ([1]; extensive metabolizers (EMs)): 95+/−0.5%; mean performance +/-SE ([1]; poor metabolizers (PMs)): 86+/−6%
CC(=O)O[C@@]12CO[C@@H]1C[C@H](O)[C@@]1(C)C(=O)[C@H](O)C3=C(C)[C@@H](OC(=O)[C@H](O)[C@@H](NC(=O)OC(C)(C)C)c4ccccc4)C[C@@](O)([C@@H](OC(=O)c4ccccc4)[C@H]21)C3(C)C [Docetaxel] |  |  | front-line response rate in breast cancer (breast cancer): up to 73%
Nc1nc2nc[nH]c2c(=O)[nH]1 [Guanine] | 0% | 0 | 
O=c1[nH]cnc2nc[nH]c12 [Hypoxanthine] | 0% | 0 | 
O=c1cc[nH]c(=O)[nH]1 [Uracil] | 0% | 0 | 
O=c1[nH]c(=O)c2[nH]c(=O)[nH]c2[nH]1 [Uric acid] | 0% | 0 | 
O=c1[nH]c(=O)c2[nH]cnc2[nH]1 [Xanthine] | 0^a % | 0 | 
Nc1ccc(S(=O)(=O)c2ccc(N)cc2)cc1 [dapsone] |  |  | adverse reactions ([2]; fast acetylators): 17%; adverse reactions ([2]; slow acetylators): 46%
COc1cccc2c1C(=O)c1c(O)c3c(c(O)c1C2=O)C[C@@](O)(C(=O)CO)C[C@@H]3O[C@H]1C[C@H](N)[C@H](O)[C@H](C)O1 [doxorubicin] |  |  | front-line response rate in breast cancer (breast cancer): 53%; incidence of cardiomyopathy (congestive heart failure and dysrhythmias) [3]: approximately 2%
CC/C(=C(\c1ccccc1)c1ccc(OCCN(C)C)cc1)c1ccccc1 [tamoxifen] |  |  | occurrence of hormone flare (increasing bone pain, erythema, hypercalcemia) ([4]; after 7-14 days of treatment, women with estrogen receptor-positive breast cancer and bone metastases): approximately 5%; individuals with hormone flare who respond to tamoxifen ([4]; individuals with hormone flare): 75%
